Test results from patent US20140010939A1, “Sweetness Enhancers, Sweetener Compositions, Methods of Making the Same and Consumables Containing the Same” (Nutrinova Nutrition Specialties & Food Ingredients GmbH, priority 2011, published 2014).

What was measured:
[1] = Taste and spit assay phase I - qualitative assessment; assay type: in vivo; details: 20 μM in 0.5% ethanol, 10 ml samples, 5 individuals, ambient temperature
Protocol: The taste of a sample of compound of formula (Ia) with regard to sweetness and fructose enhancing features was assessed by using a panel of trained sensory evaluators experienced in the sweet taste estimation procedure. 5 individuals were asked to taste the quality of single samples of 10 ml volume. Panelists were asked to take a sample of the liquid to be assessed (20 μM test substance compound of formula (Ia) in 0.5% ethanol) into the mouth and after some time allowed for taste perception to spit the sample out completely. Subsequently, the panelists were asked to rinse their mouth well with water or black tea to reduce any potential carry over effects. The tasting of a sample could be repeated if required. In a first descriptive test 5 individuals were asked to taste the quality of single samples of 10 ml volume (maximum 3 subsequent samples). The samples were served at ambient temperature. The individuals of the taste panel were asked to answer the following questions with regard to the quality of taste: 1) does the sample taste sweet?, 2) is there another taste detectable (bitter, sour, salty, umami)?, 3) is there an off- or aftertaste?, 4) is there anything else remarkable about the perception of the sample?

[2] = Solubility assessment in buffer (visual check by two persons); assay type: physicochemical
Protocol: 20 μmol (8.96 mg) of the compound of formula (Ia) were used for samples preparation. The samples were partitioned into two portions for each buffer system and placed into 1.6 ml glass vials. To each of the vials 100 μl of the respective buffer solution was added to prepare the 100 mM samples. All Samples were thoroughly sonicated and vortexed to yield homogenous solutions or suspensions. The resulting set of samples consisted of • Compound of formula (Ia)—100 mM, buffer 3.0 • Compound of formula (Ia)—100 mM, buffer 6.5
In a second step from each of the prior listed samples 7.5 μl were pipetted into 1.6 ml glass vials followed by addition of 142.5 μl of the respective buffer solution. The resulting set of samples consisted of: • Compound of formula (Ia)—5 mM, buffer 3.0 • Compound of formula (Ia)—5 mM, buffer 6.5
In a third step, after sonication and vortexing to yield homogenous solutions or suspensions, 25 μl from each of the samples listed above were pipetted into 1.6 ml glass vials followed by addition of 100 μl of the respective buffer solution. The resulting set of samples consisted of: • Compound of formula (Ia)—1 mM, buffer 3.0 • Compound of formula (Ia)—1 mM, buffer 6.5
After the preparation of all 6 samples, the entire set was sonicated and vortexed again.
Afterwards the set of 6 samples was placed into a deep freezer and stored at −22° C. for 72 h. After that period, the samples were thawed, sonicated, and vortexed.
In a final step the set of 6 samples was placed into a dark box at 23° C. for 72 h. After that period, the samples were sonicated, and vortexed.
The results of the solubility study are documented in three tables. Three categories for the state of solution are in generally used: “Yes”, “Incomplete” and “No”. The category “Yes” is only used in case of a clear flawless solution. The category “Incomplete” is used in case of a visible strong reduction of undissolved matter. The category “No” was used for all other cases.

Dissolved after freezing/thawing ([2]; 1 mM, buffer 3.0, after −22° C. for 72 h and thawing): yes
Dissolved after three days at room temperature ([2]; 1 mM, buffer 3.0, dark box at 23° C. for 72 h): yes
Immediately dissolved ([2]; 1 mM, buffer 3.0, directly after sample preparation): yes
Dissolved after freezing/thawing ([2]; 1 mM, buffer 6.5, after −22° C. for 72 h and thawing): yes
Dissolved after three days at room temperature ([2]; 1 mM, buffer 6.5, dark box at 23° C. for 72 h): yes
Immediately dissolved ([2]; 1 mM, buffer 6.5, directly after sample preparation): yes
Dissolved after freezing/thawing ([2]; 5 mM, buffer 3.0, after −22° C. for 72 h and thawing): yes
Dissolved after three days at room temperature ([2]; 5 mM, buffer 3.0, dark box at 23° C. for 72 h): yes
Immediately dissolved ([2]; 5 mM, buffer 3.0, directly after sample preparation): yes
Dissolved after freezing/thawing ([2]; 5 mM, buffer 6.5, after −22° C. for 72 h and thawing): yes
Dissolved after three days at room temperature ([2]; 5 mM, buffer 6.5, dark box at 23° C. for 72 h): yes
Immediately dissolved ([2]; 5 mM, buffer 6.5, directly after sample preparation): yes
Dissolved after freezing/thawing ([2]; 100 mM, buffer 3.0, after −22° C. for 72 h and thawing): yes
Dissolved after three days at room temperature ([2]; 100 mM, buffer 3.0, dark box at 23° C. for 72 h): yes
Immediately dissolved ([2]; 100 mM, buffer 3.0, directly after sample preparation): yes
Dissolved after freezing/thawing ([2]; 100 mM, buffer 6.5, after −22° C. for 72 h and thawing): yes
Dissolved after three days at room temperature ([2]; 100 mM, buffer 6.5, dark box at 23° C. for 72 h): yes
Immediately dissolved ([2]; 100 mM, buffer 6.5, directly after sample preparation): yes
Solubility (overall) ([2]; summary: 1, 5 and 100 mM in water with buffer at pH 3.0 and 6.5): immediately dissolved at all conditions
SMILES: CC(=O)N(O)CCCCCNC(=O)C(O)(CC(=O)O)CC(=O)NCCCN(O)C(C)=O (stereo not drawn) [compound of formula (Ia)]
Characteristic taste of the sample (sweet, bitter, sour, salty, umami) [1]: No characteristic taste was identified
Off- or aftertaste [1]: no off-taste was detected
